Measured values: patent US12679878B2, “CRF2 receptor agonists and their use in therapy” (SANOFI, priority 2020, dated 2026)
Like-named read-outs stand apart in the source and are kept apart here. Starred links: 1 amine or outer side, 2 acyl side, 3 side chain; linkers in the order of their positions; H or OH if unused. Non-standard residues stand in square brackets, D forms with d. Residues, ends and D or L forms follow the SMILES beside them. Groups on a side chain read outwards from the residue. *: point of attachment. C18 diacid = O=C(O)CCCCCCCCCCCCCCCCC(=O)*; γGlu = O=C(O)[C@H](CCC(=O)[*:2])N[*:1]; Palmitoyl = CCCCCCCCCCCCCCCC(=O)*; AEEA = NCCOCCOCC(=O)O; Aib = CC(C)(N)C(=O)O

How the values were obtained:
CRF1R receptor = target: T1, CRF1R receptor (Homo sapiens, UniProt P34998); test: cAMP activity at anti-target CRF1R, CRF1R-overexpression CHO cell line (Example 9); format: cell-based; details: CRF1R-overexpression CHO cell line; for Emax: read-out: Emax (%); for EC50: 0% HSA
T1 construct: host or cells: CHO-K1 clone 2
T1 sequence (P34998 24-415): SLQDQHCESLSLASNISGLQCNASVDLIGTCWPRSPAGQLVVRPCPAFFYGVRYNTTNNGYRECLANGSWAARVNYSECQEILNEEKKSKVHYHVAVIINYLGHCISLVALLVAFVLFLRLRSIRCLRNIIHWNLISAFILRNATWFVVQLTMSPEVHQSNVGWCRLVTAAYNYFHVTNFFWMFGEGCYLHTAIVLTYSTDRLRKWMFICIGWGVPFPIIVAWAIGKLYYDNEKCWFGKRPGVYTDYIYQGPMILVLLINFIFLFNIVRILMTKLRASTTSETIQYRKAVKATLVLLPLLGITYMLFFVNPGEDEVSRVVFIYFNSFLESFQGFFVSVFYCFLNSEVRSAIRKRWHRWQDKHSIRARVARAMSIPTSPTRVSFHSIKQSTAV
Method: Cells were grown in a T175 culture flask placed at 37° C. to near confluence in medium (DMEM/10% FBS) and collected in 2 ml vials in cell culture medium containing 10% DMSO in a concentration of 10-50 million cells/ml. Each vial contained 1.8 ml cells. The vials were slowly frozen to −80° C. in isopropanol and then transferred in liquid nitrogen for storage. Prior to use, frozen cells were thawed quickly at 37° C. and washed (5 min at 900 rpm) with 20 ml cell buffer (1×HBSS; 20 mM HEPES; 0% or 0.1% HSA). Cells were resuspended in assay buffer (cell buffer plus 2 mM IBMX) and adjusted to a cell density of 1 million cells/ml. For measurement, 5 μl cells (final […]) and 5 μL of test compound were added to a 384-well plate, followed by incubation for 30 minutes at room temperature.
The CAMP content of cells was determined using a kit from Cisbio Corp. (cat. no. 62AM4PEC) based on HTRF (Homogenous Time Resolved Fluorescence). […] The percent activity value (E %) was calculated by setting 1000 nM of urocortin 2 (UCN2) as 100%.
A CRF1R-overexpression CHO cell line was used in this study.

human CRF2α receptor = target: T2, human CRF2α receptor (Homo sapiens, UniProt Q13324); test: cAMP agonism at human CRF2 α receptor in TeloHEAC cells (Example 7); format: cell-based; details: cAMP HTRF, TeloHEAC cells stably expressing human CRF2 α
T2 construct: expressed in transfected cells; host or cells: TeloHEAC
T2 sequence (Q13324 1-411): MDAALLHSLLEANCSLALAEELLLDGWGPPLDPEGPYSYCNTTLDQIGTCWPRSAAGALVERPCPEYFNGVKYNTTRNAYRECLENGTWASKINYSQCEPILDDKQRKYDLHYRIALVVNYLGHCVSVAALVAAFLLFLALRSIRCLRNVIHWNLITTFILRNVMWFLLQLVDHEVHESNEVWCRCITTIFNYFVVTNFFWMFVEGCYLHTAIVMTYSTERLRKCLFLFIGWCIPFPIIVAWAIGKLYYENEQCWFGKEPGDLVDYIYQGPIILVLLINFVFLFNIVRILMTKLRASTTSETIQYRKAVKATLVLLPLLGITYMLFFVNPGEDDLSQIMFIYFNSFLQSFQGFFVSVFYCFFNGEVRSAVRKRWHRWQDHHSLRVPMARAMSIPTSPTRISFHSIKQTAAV
In short: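 Cryopreserved cells are thawed, washed and resuspended in IBMX-containing (2 mM) HEPES-buffered HBSS with or without 0.1% HSA. Compound incubation runs 30 min at room temperature with 2000 cells per well, then cAMP is measured by time-resolved FRET. Potency is expressed as EC50, efficacy relative to urocortin 2 at 1000 nM.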

[1] = 0% HSA, read-out: EC50 [nM], 0% HSA
[2] = 0.1% HSA, read-out: EC50 [nM], 0.1% HSA

Compound | Emax (CRF1R receptor) [%] | EC50 (human CRF2α receptor; [1]) [nM] | EC50 (CRF1R receptor) [nM] | EC50 (human CRF2α receptor; [2]) [nM]
CCCCCCCCCCCCCCCC(=O)N[C@@H](CCC(=O)NCCCC[C@H](NC(=O)[C@H](CC(C)C)NC(=O)[C@H](CCCCN)NC(=O)[C@@H](NC(=O)[C@@H]1CCCN1C(=O)[C@H](NC(=O)[C@H](CC(=O)O)NC(=O)[C@H](CC(C)C)NC(=O)[C@H](CO)NC(=O)[C@H](CC(C)C)NC(=O)[C@@H](NC(=O)[C@@H](N)[C@@H](C)CC)C(C)C)C(C)C)[C@@H](C)O)C(=O)N[C@@H](CCC(N)=O)C(=O)N[C@@H](CCCCN)C(=O)N[C@@H](CC(C)C)C(=O)N[C@@H](CC(C)C)C(=O)N[C@@H](CCCCN)C(=O)N[C@@H](CCC(N)=O)C(=O)N[C@@H](CCC(=O)O)C(=O)N[C@@H](CCCNC(=N)N)C(=O)N[C@@H](CCC(N)=O)C(=O)N[C@@H](CCCNC(=N)N)C(=O)N[C@@H](CCCCN)C(=O)N[C@@H](CCC(=O)O)C(=O)NC(C)(C)C(=O)N[C@@H](CCC(=O)O)C(=O)N[C@@H](CCC(N)=O)C(=O)N[C@@H](C)C(=O)N[C@@H](CCC(=O)O)C(=O)N[C@@H](CCCCN)C(=O)N[C@@H](CC(N)=O)C(=O)N[C@@H](CCCCN)C(=O)N[C@@H](CCCNC(=N)N)C(=O)N[C@H](C(=O)N[C@@H](CC(C)C)C(=O)N[C@@H](CCC(=O)O)C(=O)N[C@@H](CCCNC(=N)N)C(=O)N[C@H](C(N)=O)C(C)C)[C@@H](C)CC)C(=O)O [compound 21] (H-IVLSLD[dV]PTKLK([γGlu-Palmitoyl])QKLLKQERQRKE[Aib]EQAEKNKRILERV-NH2; N-terminus assumed) | 59.2 | 0.02 |  | 
CC[C@H](C)[C@H](NC(C)=O)C(=O)N[C@H](C(=O)N[C@@H](CC(C)C)C(=O)N[C@@H](CO)C(=O)N[C@@H](CC(C)C)C(=O)N[C@@H](CC(=O)O)C(=O)N[C@@H](C(=O)N1CCC[C@H]1C(=O)N[C@H](C(=O)N[C@@H](CCCCN)C(=O)N[C@@H](CC(C)C)C(=O)N[C@@H](CCCCNC(=O)COCCOCCNC(=O)COCCOCCNC(=O)CC[C@H](NC(=O)CCCCCCCCCCCCCCCCC(=O)O)C(=O)O)C(=O)N[C@@H](CCC(N)=O)C(=O)N[C@H](C(=O)N[C@@H](CC(C)C)C(=O)N[C@@H](CC(C)C)C(=O)N[C@@H](CCC(=O)O)C(=O)N[C@@H](CCC(N)=O)C(=O)N[C@@H](CCC(=O)O)C(=O)N[C@@H](CCCNC(=N)N)C(=O)N[C@@H](CCC(N)=O)C(=O)N[C@@H](CCC(=O)O)C(=O)NC(C)(C)C(=O)N[C@@H](CCC(=O)O)C(=O)N[C@@H](CCCNC(=N)N)C(=O)N[C@@H](CCC(=O)O)C(=O)N[C@@H](CCC(N)=O)C(=O)N[C@@H](C)C(=O)N[C@@H](CCC(=O)O)C(=O)N[C@H](C(=O)N[C@@H](CC(N)=O)C(=O)N[C@@H](CCCCN)C(=O)N[C@@H](CCC(N)=O)C(=O)N[C@H](C(=O)N[C@@H](CC(C)C)C(=O)N[C@@H](CCC(=O)O)C(=O)N[C@@H](CCC(N)=O)C(=O)N[C@H](C(N)=O)C(C)C)[C@@H](C)CC)[C@@H](C)O)[C@@H](C)CC)[C@@H](C)CC)C(C)C)C(C)C [compound 160] (Ac-IVLSLD[dV]PIKLK([AEEA-AEEA-γGlu-C18 diacid])QILLEQERQE[Aib]EREQAETNKQILEQV-NH2) | 20.8 | 8.56 | > 1000 | 28.9
CC[C@H](C)[C@H](NC(C)=O)C(=O)N[C@H](C(=O)N[C@@H](CC(C)C)C(=O)N[C@@H](CO)C(=O)N[C@@H](CC(C)C)C(=O)N[C@@H](CC(=O)O)C(=O)N[C@@H](C(=O)N1CCC[C@H]1C(=O)N[C@H](C(=O)N[C@@H](CCCCN)C(=O)N[C@@H](CC(C)C)C(=O)N[C@@H](CCCCNC(=O)COCCOCCNC(=O)COCCOCCNC(=O)CC[C@H](NC(=O)CCCCCCCCCCCCCCCCC(=O)O)C(=O)O)C(=O)N[C@@H](CCC(N)=O)C(=O)N[C@H](C(=O)N[C@@H](CC(C)C)C(=O)N[C@@H](CC(C)C)C(=O)N[C@@H](CCC(=O)O)C(=O)N[C@@H](CCC(N)=O)C(=O)N[C@@H](CCC(=O)O)C(=O)N[C@@H](CCCNC(=N)N)C(=O)N[C@@H](CCC(N)=O)C(=O)N[C@@H](CCC(=O)O)C(=O)NC(C)(C)C(=O)N[C@@H](CCC(=O)O)C(=O)N[C@@H](CCCNC(=N)N)C(=O)N[C@@H](CCC(=O)O)C(=O)N[C@@H](CCC(N)=O)C(=O)N[C@@H](C)C(=O)N[C@@H](CCC(=O)O)C(=O)N[C@@H](CCCCN)C(=O)N[C@@H](CC(N)=O)C(=O)N[C@@H](CCC(=O)O)C(=O)N[C@@H](CCC(N)=O)C(=O)N[C@H](C(=O)N[C@@H](CC(C)C)C(=O)N[C@@H](CCC(=O)O)C(=O)N[C@@H](CCC(N)=O)C(=O)N[C@H](C(N)=O)C(C)C)[C@@H](C)CC)[C@@H](C)CC)[C@@H](C)CC)C(C)C)C(C)C [compound 161] (Ac-IVLSLD[dV]PIKLK([AEEA-AEEA-γGlu-C18 diacid])QILLEQERQE[Aib]EREQAEKNEQILEQV-NH2) | 3.42 | 36 | > 1000 | 977
CC[C@H](C)[C@H](N)C(=O)N[C@H](C(=O)N[C@@H](CC(C)C)C(=O)N[C@@H](CO)C(=O)N[C@@H](CC(C)C)C(=O)N[C@@H](CC(=O)O)C(=O)N[C@@H](C(=O)N1CCC[C@H]1C(=O)N[C@H](C(=O)N[C@@H](CCCCN)C(=O)N[C@@H](CC(C)C)C(=O)N[C@@H](CCCCNC(=O)COCCOCCNC(=O)COCCOCCNC(=O)CC[C@H](NC(=O)CC[C@H](NC(=O)CCCCCCCCCCCCCCCCC(=O)O)C(=O)O)C(=O)O)C(=O)N[C@@H](CCC(N)=O)C(=O)N[C@H](C(=O)N[C@@H](CC(C)C)C(=O)N[C@@H](CC(C)C)C(=O)N[C@@H](CCCCN)C(=O)N[C@@H](CCC(N)=O)C(=O)N[C@@H](CCC(=O)O)C(=O)N[C@@H](CCCNC(=N)N)C(=O)N[C@@H](CCC(N)=O)C(=O)N[C@@H](CCCCN)C(=O)NC(C)(C)C(=O)N[C@@H](CCC(N)=O)C(=O)N[C@@H](CCCNC(=N)N)C(=O)N[C@@H](CCC(=O)O)C(=O)N[C@@H](CCC(N)=O)C(=O)N[C@@H](C)C(=O)N[C@@H](CCC(=O)O)C(=O)N[C@@H](CCCCN)C(=O)N[C@@H](CC(N)=O)C(=O)N[C@@H](CCCCN)C(=O)N[C@@H](CCC(N)=O)C(=O)N[C@H](C(=O)N[C@@H](CC(C)C)C(=O)N[C@@H](C)C(=O)N[C@@H](CCC(N)=O)C(=O)N[C@H](C(N)=O)C(C)C)[C@@H](C)CC)[C@@H](C)CC)[C@@H](C)CC)C(C)C)C(C)C [compound 171] (H-IVLSLD[dV]PIKLK([AEEA-AEEA-γGlu-γGlu-C18 diacid])QILLKQERQK[Aib]QREQAEKNKQILAQV-NH2) | 7.54 | 0.17 | > 1000 | 2.62
